Here are results for 29 molecules from PubChem BioAssay (NCI).

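Following 48 hours of exposure in 96-well plates, responses at five concentrations were used to interpolate endpoints linearly. TGI marks complete inhibition of growth.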

Among the test systems are RXF-631 renal; BT-549 breast; KM20L2 colon; LXFL 529 NSCLC; MDA-N; DLD-1 colon; DMS 273 small cell lung; XF 498 CNS; M19-MEL melanoma.
Assay in all cases: inhibition of tumour cell growth, NCI panel, 48 h

Turning to `CS(=O)(=O)c1nc(Cl)c(Cl)c(C#N)c1Cl`, the TGI worked out at 38.9 µM in the assay with RXF-631 renal; 3.37 µM in the assay with BT-549 breast; 20.8 µM with KM20L2 colon; 2.99 µM with LXFL 529 NSCLC; 3.5 µM in the assay with MDA-N; 3.13 µM in the assay with DLD-1 colon. Moreover, the TGI in the assay on DMS 273 small cell lung was determined as 24.6 µM; in the assay on XF 498 CNS, 7.93 µM.
Take `CCc1oc2ccc(OC)c3c2c1C=CC=C3`: the TGI with LXFL 529 NSCLC, in the assay with DLD-1 colon, with DMS 273 small cell lung and with M19-MEL melanoma was above 100 µM in each case.
`COC(=O)C(=O)C1CCCCC(C2=NC3NN=C(N)N3C2=O)C1=O` (configuration not stated): the TGI with RXF-631 renal, with KM20L2 colon, with LXFL 529 NSCLC, in the assay with DLD-1 colon, with DMS 273 small cell lung and with XF 498 CNS was above 100 µM each time. Further, in the assay with M19-MEL melanoma, the TGI is above 100 µM.
For `O=C1CCC(=O)C(C(=O)CCC(=O)Nc2cccc(Cl)c2)C1` (configuration not stated), the TGI in the assay with KM20L2 colon, with LXFL 529 NSCLC, in the assay on DLD-1 colon, with XF 498 CNS and in the assay with M19-MEL melanoma was above 100 µM each time.
Turning to `CC12C(=O)N(CCN)C(=O)C1C1c3ccccc3C2c2ccccc21` (configuration not stated), the TGI in the assay with KM20L2 colon, in the assay with LXFL 529 NSCLC, in the assay on DLD-1 colon, in the assay on DMS 273 small cell lung, with XF 498 CNS and in the assay with M19-MEL melanoma was above 100 µM in each case.
As for `N#CC12Cc3ccc4c(c3-c3cccc(c31)CCN2C(=O)c1ccccc1)OCO4` (configuration not stated), the TGI in the assay on KM20L2 colon, with LXFL 529 NSCLC, in the assay on DLD-1 colon, in the assay with DMS 273 small cell lung, with XF 498 CNS and in the assay on M19-MEL melanoma was above 100 µM in each case.
Turning to `CCOc1ccc(NC(=O)CCC(=O)NN)cc1`, the TGI was above 100 µM with KM20L2 colon; above 100 µM in the assay on LXFL 529 NSCLC; above 100 µM in the assay on DLD-1 colon; above 100 µM in the assay with DMS 273 small cell lung; 95 µM with XF 498 CNS.
In the case of `CO[C@@]12CC(=O)/C(=C(O)\C=C\c3ccccc3)C(=O)[C@]1(OC)Cc1ccccc1O2`, the TGI is above 100 µM in the assay on RXF-631 renal; 49.2 µM in the assay on KM20L2 colon; above 100 µM with LXFL 529 NSCLC; above 100 µM in the assay with DLD-1 colon; above 100 µM in the assay with XF 498 CNS; above 100 µM in the assay on M19-MEL melanoma.
As for `Cc1cccc(N=C2NC(=O)C(CC(=O)Nc3ccc(Cl)cc3C)S2)c1` (configuration not stated), the TGI in the assay on RXF-631 renal, in the assay on KM20L2 colon, with LXFL 529 NSCLC, with DLD-1 colon, in the assay with DMS 273 small cell lung and in the assay on M19-MEL melanoma was above 100 µM each time.
Regarding `CC12OC3CC(O1)C1(C=O)C4CCC5(C)C(c6ccc(=O)oc6)CCC5(O)C4CCC1(C3)O2` (configuration not stated), the TGI in the assay with KM20L2 colon is 1.31 µM; with LXFL 529 NSCLC, 0.432 µM; in the assay on DLD-1 colon it was 0.483 µM; with DMS 273 small cell lung, 0.235 µM; with M19-MEL melanoma, 1.16 µM.
For `O=C1C2Nc3ccccc3SC2C(=O)N1c1cccc([N+](=O)[O-])c1` (configuration not stated), the TGI in the assay on RXF-631 renal, in the assay with KM20L2 colon, with LXFL 529 NSCLC, in the assay with DLD-1 colon, in the assay on DMS 273 small cell lung and in the assay on XF 498 CNS was above 100 µM each time. The molecule further had a TGI in the assay on M19-MEL melanoma above 100 µM.
For `COC(=O)C1=Cc2c(OC)cc(OC)c(OC)c2[C@H](c2cc(OC)c(OC)cc2OC)C1C(=O)OC` (some centres not stated), the TGI in the assay on RXF-631 renal, with KM20L2 colon, in the assay on LXFL 529 NSCLC, in the assay with DLD-1 colon, with DMS 273 small cell lung and in the assay with XF 498 CNS was above 100 µM throughout. The molecule also showed a TGI in the assay on M19-MEL melanoma above 100 µM.
Regarding `OC1C2C=CCC1CCC2` (configuration not stated), the TGI in the assay with RXF-631 renal, in the assay with KM20L2 colon, in the assay on DLD-1 colon, in the assay on DMS 273 small cell lung, with XF 498 CNS and with M19-MEL melanoma was above 100 µM in each case.
On to `CC1=NN(c2ccccc2)C(=O)C1N=Nc1ccc(Br)c(C)c1` (configuration not stated), for which the TGI in the assay with RXF-631 renal, in the assay on KM20L2 colon, with LXFL 529 NSCLC, in the assay on DLD-1 colon, in the assay with DMS 273 small cell lung and in the assay on XF 498 CNS was above 100 µM in each case. For the same molecule, the TGI in the assay on M19-MEL melanoma was above 100 µM.
For the molecule `O=c1[nH]c2c(O)cccc2c2cc3c(c(O)c12)OCO3`, the TGI amounted to 40.4 µM in the assay on KM20L2 colon; 73.1 µM in the assay with LXFL 529 NSCLC; 62.4 µM in the assay on DLD-1 colon; 59.3 µM with DMS 273 small cell lung; 56 µM with XF 498 CNS; 93.5 µM in the assay on M19-MEL melanoma.
Consider `CC(C)c1cccc(C(C)C)c1NC1=CC(=O)C(=O)c2ccccc21`, for which the TGI is above 100 µM with RXF-631 renal; above 100 µM in the assay on KM20L2 colon; above 100 µM in the assay on LXFL 529 NSCLC; above 100 µM in the assay with DLD-1 colon; above 100 µM in the assay on DMS 273 small cell lung; 43.1 µM with M19-MEL melanoma.
For the molecule `Cc1cc(=O)[nH]c(CNC(=O)Cc2ccccc2)n1`, the TGI in the assay on KM20L2 colon, in the assay with LXFL 529 NSCLC, with DLD-1 colon, in the assay with DMS 273 small cell lung, with XF 498 CNS and in the assay on M19-MEL melanoma was above 100 µM throughout.
Take `CC(C)NC(=O)O/N=C1\CCC2[C@@H]3CC=C4C[C@@H](OC(=O)NC(C)C)CC[C@]4(C)C3CC[C@]12C` (some centres not stated): the TGI in the assay with RXF-631 renal was 3.57 µM; in the assay with KM20L2 colon it was 9.59 µM; in the assay on LXFL 529 NSCLC, 2.13 µM; with DLD-1 colon it was above 25.3 µM; with DMS 273 small cell lung, 2.82 µM; in the assay on M19-MEL melanoma it was 2.81 µM.
Take `CCOC(=O)c1c(C(F)(F)F)oc2c1ccc1nc3nonc3nc12`: the TGI in the assay with RXF-631 renal was determined as 37.6 µM; in the assay on KM20L2 colon, 36.5 µM; with LXFL 529 NSCLC, 27.2 µM; in the assay with DLD-1 colon it was 28.6 µM; in the assay on DMS 273 small cell lung, 34.4 µM; in the assay on XF 498 CNS it was 30.8 µM. For the same molecule, the TGI with M19-MEL melanoma stood at 38.2 µM.
In the case of `Cc1cc2c(cc1C)[n+]([O-])c(-c1c(Cl)cccc1Cl)c(N)[n+]2[O-]`, the TGI with RXF-631 renal is 35.7 µM; in the assay with KM20L2 colon, above 100 µM; in the assay with LXFL 529 NSCLC, above 100 µM; in the assay on DLD-1 colon it was above 100 µM; with DMS 273 small cell lung, 86.3 µM; in the assay with M19-MEL melanoma, above 100 µM.
As to `NNC(=S)N/N=C/C(Cl)=C(\Cl)C(=O)O`, the TGI in the assay with KM20L2 colon, in the assay with LXFL 529 NSCLC, in the assay on DLD-1 colon, in the assay on DMS 273 small cell lung, with XF 498 CNS and in the assay with M19-MEL melanoma was above 100 µM in each case.
For `Nn1c(N=Nc2c(O)[nH]c3ccccc23)n[nH]c1=S`, the TGI was above 100 µM in the assay on KM20L2 colon; above 100 µM in the assay on LXFL 529 NSCLC; above 100 µM in the assay on DLD-1 colon; 94 µM in the assay on XF 498 CNS; above 100 µM in the assay with M19-MEL melanoma.
For the molecule `Cc1cc(C)c2[s+]snc2c1`, the TGI in the assay on RXF-631 renal, in the assay with KM20L2 colon, with LXFL 529 NSCLC, in the assay on DLD-1 colon, in the assay with DMS 273 small cell lung and in the assay on XF 498 CNS was above 100 µM throughout. For the same molecule, the TGI in the assay on M19-MEL melanoma is above 100 µM.
Take `O=C1c2ccccc2C(=O)c2sc(Nc3ccc(Cl)c(Cl)c3)nc21`: the TGI in the assay on RXF-631 renal is 31.4 µM; in the assay on KM20L2 colon, 41.7 µM; with LXFL 529 NSCLC, 3.53 µM; in the assay with DLD-1 colon, 4.66 µM; in the assay on DMS 273 small cell lung, 22.1 µM; in the assay with XF 498 CNS, 6.04 µM. The molecule also yielded a TGI with M19-MEL melanoma of 2.44 µM.
Regarding `CP(C)C.[Ag][I]`, the TGI was above 100 µM with RXF-631 renal; above 100 µM in the assay with KM20L2 colon; 31.8 µM in the assay with LXFL 529 NSCLC; above 100 µM with DLD-1 colon; above 100 µM with DMS 273 small cell lung; 30.9 µM in the assay with XF 498 CNS. Moreover, the TGI with M19-MEL melanoma is above 100 µM.
`C[N+]1=c2c3cccc4cccc(c(=O)n2CCC1)c43`: the TGI worked out at 47.2 µM with KM20L2 colon; 40.7 µM in the assay on LXFL 529 NSCLC; 46.9 µM in the assay on DLD-1 colon; 56.7 µM in the assay on DMS 273 small cell lung; 38 µM in the assay on XF 498 CNS; 35.8 µM with M19-MEL melanoma.
Turning to `C=C1CC(C/C=C(\C)CC2CC(=C)C(=O)O2)OC1=O` (configuration not stated), the TGI in the assay on RXF-631 renal, with KM20L2 colon, in the assay on LXFL 529 NSCLC, in the assay with DLD-1 colon, in the assay with DMS 273 small cell lung and in the assay on XF 498 CNS was above 100 µM throughout. In the assay with M19-MEL melanoma, this molecule showed a TGI above 100 µM.
In the case of `N#C/C(=C\c1ccc(O)cc1O)C(N)=O`, the TGI with KM20L2 colon, in the assay with LXFL 529 NSCLC, with DLD-1 colon, with DMS 273 small cell lung, with XF 498 CNS and in the assay with M19-MEL melanoma was above 100 µM in each case.
Consider `CCOC(=O)N1CCC(=O)C[C@@H]1C/C=C/P1(=O)O[C@H](c2ccccc2)C(C)N1C(C)C` (some centres not stated), for which the TGI in the assay on KM20L2 colon, in the assay on LXFL 529 NSCLC, in the assay with DMS 273 small cell lung and in the assay on M19-MEL melanoma was above 100 µM each time.
